# Data as given in patent US20240285724A1, “METHODS AND COMPOSITIONS FOR TREATING OCULAR DISORDERS AND DISEASES” (ONL Therapeutics, Inc., priority 2021, published 2024).
# Residues, ends and D or L forms follow the SMILES beside them.
# Experiments:
# [1] = Ocular tissue concentration of ONL1204 after intravitreal injection in rabbit eye (LC-MS/MS); conditions: rabbit vitreous humor; single dose 0.1 mg/eye IVT, days 0 to 168
# Protocol: Standards and blanks were vortex mixed. […] Two hundred (200) uL of water was added.
# The samples were then vortex mixed for 5 minutes.
# The samples were dried with nitrogen at 35° C.
# [2] = test system: retinal pigment epithelial cell death; assay: Sodium iodate (NaIO3) challenge study, lesion area by fluorescein angiography; type: in vivo; conditions: rabbit
# Protocol: The resulting area was then measured.
smiles,measurement,setting,value
CC[C@H](C)[C@H](NC(=O)[C@H](Cc1ccc(O)cc1)NC(=O)[C@H](CC(N)=O)NC(=O)[C@@H](NC(=O)[C@H](C)NC(=O)CNC(=O)[C@H](CC(C)C)NC(=O)[C@H](Cc1ccc(O)cc1)NC(=O)[C@@H](NC(=O)[C@H](Cc1cnc[nH]1)NC(=O)[C@@H](N)Cc1cnc[nH]1)[C@@H](C)CC)C(C)C)C(=O)N[C@@H](Cc1ccc(O)cc1)C(N)=O [ONL1204] (H-HHIYLGAVNYIY-NH2),t1/2 (half-life in the vitreous),[1],279.8 days
same,Lesion size vs negative control,"[2]; 25 ug per eye IVT on Day 0, NaIO3 challenge Day 4",significantly lower than negative control
same,Lesion size vs negative control,"[2]; 100 ug per eye IVT on Day 0, NaIO3 challenge Day 4",significantly lower than negative control
same,Lesion size vs negative control,"[2]; 100 ug per eye IVT on Day 0, NaIO3 challenge Day 14",significantly smaller lesion size then both negative controls and those treated with 25 ug
same,Lesion size vs negative control,"[2]; 100 ug per eye IVT on Day 0, NaIO3 challenge Day 28",significantly smaller lesion size then both negative control animals and those treated with 25 ug
